# Test results from US20020025929A1, “METHOD OF BUILDING AND MAINTAINING BONE” (priority 1997, published 2002).
# Marks after values point to notes of the source that are not given here.
# Assays:
# Format in all cases: in vivo, Sprague-Dawley rats
# osteopenic rats [1] = test: Micro-CT of L-3 vertebra; details: continuous dosing, 1a 0.01-1 mg/kg, 17α-ethynyl estradiol 0.1 mg/kg, PTH (1-34), 1a 0.3 mg/kg with PTH (1-34), FIG. 3
# Procedure: (§1) The metaphysis of proximal tibiae were scanned longitudinally from baseline, using a 960A pQCT loaded with Dichte software version 5.2 (Norland/Stratec, Ft. Atkinson, Wis.), using the technique described by Sato et al., —1995, JPET 272:1252-1259; Sato 1995, Bone 17:157S-162S). Volumetric bone mineral density (BMD, mg/cm3), cross-sectional area (X-Area), voxel number, and mineral content (BMC, mg) were quantitated for the whole cross-section of the metaphysis. Sites of excised bones were analyzed at higher resolution, using a micro-CT (Stratec). Specifically, distal femora (below the condyles, see Sato et al. 1995) and L-3 vertebra (mid-cross section, Helterbrand et al., 1997, Bone 21:401-409) were analyzed using voxel dimensions of 50 ×50×1000 μm and 70×70×1000 μm, respectively.
# (§2) In a second study, virgin Sprague-Dawley rats were bilaterally ovariectomized (except for the sham-operated group), the ovariectomized animals randomized, and allowed to lose bone for one month prior to treatment in the manner described above. […]
# [2] = tested on: osteopenic ovariectomized rats; test: Compression testing of L-6 vertebra; details: OVX rats; for vertebral strength (Su) and toughness of L-6 vertebra (in words): continuous treatment (PTH 90 days); for Vert E (Young's modulus) / Vert u (toughness) / Vert σu (vertebral strength): lumbar vertebra in compression, mean ± SEM
# Procedure: Bone strength of L-6 vertebrae was measured after the posterior processes were removed and the ends of the centrum made parallel using a diamond wafering saw (Buehler Isomet, Evanston, Ill.). Ultimate stress (σu) Young's modulus (E), and toughness (u) for each vertebra was measured in compression at a load rate of 50 N/sec using the MTS machine. The compressive load was applied through a pivoting platen to correct for nonparallel alignment of the faces of the vertebral body (Turner and Burr, 1993).
# Specimens were tested in saline solution at 37° C. Ultimate stress was calculated as the maximum load divided by the gross cross-sectional area πAB/4, where A and B are the vertebral widths in the anterior-posterior and medial lateral directions. Young's modulus was calculated by multiplying stiffness times 4T/πAB, where T is the specimen thickness. Toughness was calculated as the area under the load-displacement curve divided by πABT/4.
# (§3) In a second study, virgin Sprague-Dawley rats were bilaterally ovariectomized (except for the sham-operated group), the ovariectomized animals randomized, and allowed to lose bone for one month prior to treatment in the manner described above. The animal groups, each containing 7-8 animals, included sham-operated animals (SHAM); bilaterally ovariectomized animals (OVX); bilaterally ovariectomized animals treated with 0.01, 0.3 or 1 mg/kg/day of compound 1a, respectively, for three months; bilaterally ovariectomized animals treated subcutaneously with PTH(1-34) at a dose of 10 μg/kg/day for three months; bilaterally ovariectomized animals treated subcutaneously with PTH(1-34) at a dose of 10 μg/kg/day and orally with compound 1a at a dose of 0.3 mg/kg/day, both compounds administered for three months; bilaterally ovariectomized animals treated subcutaneously with PTH(1-34) at a dose of 10 μg/kg/day for forty-five days followed by gavage administration of vehicle for forty-five days; bilaterally ovariectomized animals treated subcutaneously with PTH(1-34) at a dose of 10 μg/kg/day for forty-five days followed by oral administration of only compound 1a at a dose of 0.3 mg/kg/day for forty-five days; and bilaterally ovariectomized animals treated with 17α-ethynyl estradiol administered orally at a dose of 0.1 mg/kg/day.
# [3] = tested on: osteopenic ovariectomized rats; test: Femoral neck strength (shear loading of proximal femur); design: Neck Fu (ultimate force): unit not given beside the values; details: OVX rats; for Neck Fu (ultimate force): proximal femora in shear, mean ± SEM
# Procedure: Femoral neck strength was measured by mounting the proximal half of the femur vertically in a chuck and applying downward force at a rate of 1 mm/sec on the femoral head until the neck failed. The ultimate load was calculated as the maximum force sustained by the femoral neck. All tests were done at room temperature using the MTS system.
# as §3
# [4] = tested on: osteopenic ovariectomized rats; test: Longitudinal pQCT of proximal tibial metaphysis; details: OVX rats, FIG. 1
# Procedure: as §1, §3
# In the second study, the proximal tibial metaphysis was scanned longitudinally by pQCT for rats from baseline.
# Treatment, as indicated, was initiated after 1 month postovariectomy and continued for the following 3 months. Specifically, administration of compound 1a alone(closed triangles), PTH (1-34) alone (open triangles), in combination (closed squares), or in sequence (closed diamonds) were compared to OVX (open circles), Sham (closed circles), and estrogen (EE2, open diamonds) controls.
# osteopenic rats [5] = test: Micro-CT of distal femur metaphysis; details: continuous treatment, 1a 0.01-1 mg/kg, 17α-ethynyl estradiol 0.1 mg/kg, PTH (1-34), 1a 0.3 mg/kg with PTH (1-34), FIG. 2
# Procedure: as §1, §2
# [6] = Cmpd. 1a 0.01 mg/kg/day oral, 3 months
# [7] = Cmpd. 1a 0.3 mg/kg/day oral, 3 months
# [8] = Cmpd. 1a 1 mg/kg/day oral, 3 months
# [9] = treated continuously 3 months (90 days), at termination, 1a 0.01, 0.3, 1.0 mg/kg, EE2 0.1 mg/kg, PTH (1-34) 10 μg/kg
# [10] = 3 months: PTH (1-34) 10 μg/kg/day s.c., 1a 0.3 mg/kg/day oral + PTH, EE2 0.1 mg/kg/day oral
# [11] = PTH (1-34) 10 μg/kg/day s.c. 45 days, then vehicle or 1a 0.3 mg/kg/day oral 45 days
molecule,measurement,setting,value
"COc1ccc(-c2sc3cc(O)ccc3c2Oc2ccc(OCCN3CCCCC3)cc2)cc1 [Compound 1a, 6-hydroxy-2-(4-methoxyphenyl)-3-[4-(2-piperidin-1-ylethoxy)phenoxy]-benzo[b]thiophene]",spinal BMD or BMC of L-3 vertebra (micro-CT),osteopenic rats [1],marginal effects
same,vertebral strength (Su) and toughness of L-6 vertebra (in words),[2],improved vertebral strength (Su) and toughness in a dose-dependent manner to above OVX
same,Vert E (Young's modulus),[2]; [6],540 ± 72
same,Vert u (toughness),[2]; [6],1.72 ± 0.44
same,Vert σu (vertebral strength),[2]; [6],24.8 ± 2.3^s
same,Vert E (Young's modulus),[2]; [7],436 ± 76
same,Vert u (toughness),[2]; [7],1.97 ± 0.37
same,Vert σu (vertebral strength),[2]; [7],28.3 ± 1.9^o
same,Vert E (Young's modulus),[2]; [8],384 ± 30
same,Vert u (toughness),[2]; [8],2.30 ± 0.29^o
same,Vert σu (vertebral strength),[2]; [8],27.8 ± 1.5^o
same,Neck Fu (ultimate force),[3]; [6],112 ± 4.7
same,Neck Fu (ultimate force),[3]; [7],114 ± 5.1
same,Neck Fu (ultimate force),[3]; [8],117 ± 3.1
same,volumetric BMD of proximal tibial metaphysis (pQCT),[4]; [9],prevented further bone loss and had BMD significantly greater than OVX at termination
same,BMD of distal femur metaphysis (micro-CT),osteopenic rats [5],prevented further bone loss
"C#C[C@]1(O)CC[C@H]2[C@@H]3CCc4cc(O)ccc4[C@H]3CC[C@@]21C [EE2, 17α-ethynyl estradiol]",spinal BMD or BMC of L-3 vertebra (micro-CT),osteopenic rats [1],marginal effects
same,Vert E (Young's modulus),[2]; [10],579 ± 94
same,Vert u (toughness),[2]; [10],1.44 ± 0.37
same,Vert σu (vertebral strength),[2]; [10],28.1 ± 2.6^o
same,Neck Fu (ultimate force),[3]; [10],110 ± 6.1
same,volumetric BMD of proximal tibial metaphysis (pQCT),[4]; [9],BMD significantly greater than OVX at termination
same,BMD of distal femur metaphysis (micro-CT),osteopenic rats [5],prevented further bone loss
"PTH: N-terminal 1-34 fragment of human parathyroid hormone, hPTH(1-34, Sequence ID No. 3); PTH/vehicle = 45 days PTH then vehicle",spinal BMD or BMC of L-3 vertebra (micro-CT),osteopenic rats [1],improved BMD to significantly above OVX
same,vertebral strength (Su) of L-6 vertebra (in words),[2]; PTH (1-34) discontinued after 45 days or switched to compound 1a,lowered Su to below Sham
same,vertebral strength (Su) and toughness of L-6 vertebra (in words),[2],increased Su and toughness to above OVX and Sham levels
same,Vert E (Young's modulus),[2]; [10],686 ± 77
same,Vert u (toughness),[2]; [10],"3.68 ± 1.10^s,o"
same,Vert σu (vertebral strength),[2]; [10],"45.5 ± 2.4^s,o"
same,Vert E (Young's modulus),[2]; [11],524 ± 109
same,Vert u (toughness),[2]; [11],1.16 ± 0.22
same,Vert σu (vertebral strength),[2]; [11],24.2 ± 2.5^s
same,ultimate load for the femora neck (in words),[3],higher than OVX and Sham
same,Neck Fu (ultimate force),[3]; [10],"148 ± 2.6^s,o"
same,Neck Fu (ultimate force),[3]; [11],116 ± 6.2
same,volumetric BMD of proximal tibial metaphysis (pQCT),"[4]; PTH (1-34) 45 days then discontinued or switched to compound 1a, at termination",BMD decreased to significantly below Sham
same,volumetric BMD of proximal tibial metaphysis (pQCT),[4]; after PTH (1-34) for 45 days,regained BMD to Sham levels
same,BMD of distal femur metaphysis (micro-CT),osteopenic rats [5],"increased BMD was observed to levels significantly beyond OVX, Sham, and baseline levels"
